According to patent US11090304B2 (Amgen Inc., priority 2018, dated 2021):
pIC50: −log10 of the molar value.

What was measured:
[1] = target: GDP-bound KRAS protein (aa 1-169), containing both G12C and C118A amino acid substitutions (Homo sapiens, UniProt P01116, C118A/G12C); assay: Coupled nucleotide exchange assay (SOS-mediated, AlphaScreen); format: biochemical; conditions: 5 min compound pre-incubation
[2] = test system: Phosphorylation of ERK1/2 in MIA PaCa-2 cells; assay: Phospho-ERK1/2 MSD assay in MIA PaCa-2 cells; format: cell-based; conditions: Homo sapiens, MIA PaCa-2, 2 h, read-out: p-ERK IC50 (2 h; MIA PaCa-2), 2 h compound treatment
Method in brief: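 In the procedure, cells were plated a day ahead at 25,000 per well. Next, a dilution series of compound in growth medium was added for 2 or 4 h. EGF (10 ng/mL) stimulation for 10 min preceded washing and RIPA lysis. Lysate phospho-ERK1/2 was read by MSD, with IC50 derived by 4-parameter logistic analysis.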

Sequence of GDP-bound KRAS protein (aa 1-169), containing both G12C and C118A amino acid substitutions (P01116 1-169 isoform P01116-2 G12C/C118A): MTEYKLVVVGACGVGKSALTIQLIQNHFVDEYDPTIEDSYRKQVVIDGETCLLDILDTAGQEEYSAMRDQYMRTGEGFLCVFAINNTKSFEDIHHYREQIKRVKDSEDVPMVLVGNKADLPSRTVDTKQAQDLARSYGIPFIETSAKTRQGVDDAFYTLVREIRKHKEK

Compound	Coupled exchange IC50 (5 min) [1]	pIC50 [2]
C=CC(=O)N1CCN(c2nc(=O)n(-c3ccccc3C(C)C)c3nc(-c4cc(N)ncc4Cl)c(Cl)cc23)[C@@H](C)C1 [Example 54-95, 7-(2-amino-5-chloro-4-pyridinyl)-6-chloro-4-((2S)-2-methyl-4-(2-propenoyl)-1-piperazinyl)-1-(2-(2-propanyl)phenyl)pyrido [2,3-d]pyrimidin-2(1H)-one]	0.756 | nda μM	6.09
C=CC(=O)N1CCN(c2nc(=O)n(-c3ccccc3C(C)C)c3nc(-c4cccnc4N)c(Cl)cc23)[C@@H](C)C1 [Example 54-96, 7-(2-amino-3-pyridinyl)-6-chloro-4-((2S)-2-methyl-4-(2-propenoyl)-1-piperazinyl)-1-(2-(2-propanyl)phenyl)pyrido [2,3-d]pyrimidin-2(1H)-one]	0.676 | nda μM	6.44
C=CC(=O)N1CCN(c2nc(=O)n(-c3ccccc3C3(C)CC3)c3nc(-c4c(O)cccc4F)c(Cl)cc23)[C@@H](C)C1 [Example 54-97, 6-chloro-7-(2-fluoro-6-hydroxyphenyl)-1-(2-(1-methylcyclopropyl)phenyl)-4-((2S)-2-methyl-4-(2-propenoyl)-1-piperazinyl) pyrido[2,3-d]pyrimidin-2(1H)-one]	0.128 | nda μM	6.59
C=CC(=O)N1CCN(c2nc(=O)n(-c3ccccc3C3(C)CC3)c3nc(-c4ccccc4F)c(Cl)cc23)[C@@H](C)C1 [Example 54-99, 6-chloro-7-(2-fluorophenyl)-1-(2-(1-methylcyclopropyl)phenyl)-4-((2S)-2-methyl-4-(2-propenoyl)-1-piperazinyl) pyrido[2,3-d]pyrimidin-2(1H)-one]	0.153 | nda μM	6.53

Stronger by pIC50 [2], values ahead:

Coupled exchange IC50 (5 min) [1]	pIC50 [2]	Compound
0.326 | nda μM	6.77	C=CC(=O)N1CCN(c2nc(=O)n(-c3ccccc3C(C)C)c3nc(-c4cc(F)ccc4O)c(Cl)cc23)[C@@H](C)C1 [Example 54-78, 6-chloro-7-(5-fluoro-2-hydroxyphenyl)-4-((2S)-2-methyl-4-(2-propenoyl)-1-piperazinyl)-1-(2-(2-propanyl)phenyl)pyrido [2,3-d]pyrimidin-2(1H)-one]
0.072 | nda μM	7.01	C=CC(=O)N1CCN(c2nc(=O)n(-c3ccccc3C(C)C)c3nc(-c4c(O)cccc4Cl)c(Cl)cc23)[C@@H](C)C1 [Example 54-79, 6-chloro-7-(2-chloro-6-hydroxy-phenyl)-4-((2S)-2-methyl-4-(2-propenoyl)-1-piperazinyl)-1-(2-(2-propanyl)phenyl)pyrido [2,3-d]pyrimidin-2(1H)-one]
0.271 | nda μM	6.67	C=CC(=O)N1CCN(c2nc(=O)n(-c3ccccc3C(C)C)c3nc(-c4cc(OC)ccc4Cl)c(Cl)cc23)[C@@H](C)C1 [Example 54-89, 6-chloro-7-(2-chloro-5-methoxy-phenyl)-4-((2S)-2-methyl-4-(2-propenoyl)-1-piperazinyl)-1-(2-(2-propanyl)phenyl)pyrido [2,3-d]pyrimidin-2(1H)-one]
0.105 | nda μM	6.92	C=CC(=O)N1CCN(c2nc(=O)n(-c3ccccc3C(C)C)c3nc(-c4cc(O)ccc4Cl)c(Cl)cc23)[C@@H](C)C1 [Example 54-90, 6-chloro-7-(2-chloro-5-hydroxy-phenyl)-4-((2S)-2-methyl-4-(2-propenoyl)-1-piperazinyl)-1-(2-(2-propanyl)phenyl)pyrido [2,3-d]pyrimidin-2(1H)-one]
0.033 | nda μM	7.41	C=CC(=O)N1CCN(c2nc(=O)n(-c3ccccc3C(C)C)c3nc(-c4cc(O)cc(Cl)c4Cl)c(Cl)cc23)[C@@H](C)C1 [Example 54-91, 6-chloro-7-(2,3-dichloro-5-hydroxy-phenyl)-4-((2S)-2-methyl-4-(2-propenoyl)-1-piperazinyl)-1-(2-(2-propanyl)phenyl)pyrido [2,3-d]pyrimidin-2(1H)-one]
